In the NIST ThermoML archive (doi:10.1021/je020195l):
± gives the expanded uncertainty stated by the source.

Columns and labels:
[1] = excess molar enthalpy (molar enthalpy of mixing); xn = mol fraction of the nth substance listed; settings: Liquid, Flow calorimetry
[2] = activity coefficient (dimensionless); of the first substance listed, at infinite dilution; xn = mol fraction of the nth substance listed; settings: 101 kPa, Liquid, x1 = 0

CCC(C)(OC)OC [2,2-dimethoxybutane] + C1CCCCC1
[1], 303.15 K, 1204 kPa
Settings | excess molar enthalpy [kcal/mol]
x2 = 0.0623 | 0.0257 ± 0.000621
x2 = 0.1229 | 0.0471 ± 0.00108
x2 = 0.1821 | 0.0671 ± 0.00148
x2 = 0.2397 | 0.0844 ± 0.00186
x2 = 0.296 | 0.0985 ± 0.00215
x2 = 0.3509 | 0.11 ± 0.00239
x2 = 0.4045 | 0.119 ± 0.00263
x2 = 0.4568 | 0.125 ± 0.00263
x2 = 0.5079 | 0.128 ± 0.00287
x2 = 0.5578 | 0.129 ± 0.00287
x2 = 0.6066 | 0.128 ± 0.00287
x2 = 0.6542 | 0.123 ± 0.00263
x2 = 0.7008 | 0.116 ± 0.00263
x2 = 0.7464 | 0.107 ± 0.00234
x2 = 0.791 | 0.0956 ± 0.00208
x2 = 0.8346 | 0.0821 ± 0.00182
x2 = 0.8773 | 0.0657 ± 0.00146
x2 = 0.919 | 0.0468 ± 0.00105
x2 = 0.9599 | 0.0259 ± 0.000621

c1ccccc1 [benzene] + CCOC(C)OCC
[2]
Settings | activity coefficient
293.21 K | 0.64 ± 0.05
303.16 K | 0.58 ± 0.05
313.11 K | 0.56 ± 0.05
323.13 K | 0.62 ± 0.05

C1CCCCC1 [cyclohexane] + CCOC(C)OCC
[2]
Settings | activity coefficient
293.08 K | 1.76 ± 0.13
303.18 K | 1.72 ± 0.12
313.12 K | 1.67 ± 0.12
323.14 K | 1.64 ± 0.12

CCOC(C)OCC [1,1-diethoxyethane] + c1ccccc1
[1], 323.15 K, 1308 kPa
Settings | excess molar enthalpy [kcal/mol]
x2 = 0.0778 | -0.00197 ± 0.000201
x2 = 0.1511 | -0.00364 ± 0.000213
x2 = 0.2204 | -0.00483 ± 0.000225
x2 = 0.286 | -0.0057 ± 0.000239
x2 = 0.3481 | -0.00617 ± 0.000239
x2 = 0.4071 | -0.0064 ± 0.000239
x2 = 0.4631 | -0.0064 ± 0.000239
x2 = 0.5165 | -0.00619 ± 0.000239
x2 = 0.5672 | -0.00577 ± 0.000239
x2 = 0.6157 | -0.00527 ± 0.000232
x2 = 0.6619 | -0.0045 ± 0.00022
x2 = 0.7061 | -0.00365 ± 0.000213
x2 = 0.7484 | -0.00277 ± 0.000206
x2 = 0.7889 | -0.00181 ± 0.000198
x2 = 0.8278 | -0.000703 ± 0.000191
x2 = 0.865 | 7.17e-06
x2 = 0.9008 | 0.000676 ± 0.000191
x2 = 0.9351 | 0.00116 ± 0.000194
x2 = 0.9682 | 0.00114 ± 0.000194

CCC(C)(OC)OC [2,2-dimethoxybutane] + c1ccccc1
[1], 303.15 K, 1342 kPa
Settings | excess molar enthalpy [kcal/mol]
x2 = 0.0747 | 0.00416 ± 0.000217
x2 = 0.1456 | 0.00676 ± 0.000263
x2 = 0.213 | 0.00906 ± 0.000287
x2 = 0.2772 | 0.0109 ± 0.000335
x2 = 0.3383 | 0.0128 ± 0.000359
x2 = 0.3966 | 0.0141 ± 0.000382
x2 = 0.4523 | 0.0151 ± 0.000406
x2 = 0.5056 | 0.0159 ± 0.00043
x2 = 0.5565 | 0.0165 ± 0.00043
x2 = 0.6053 | 0.0167 ± 0.00043
x2 = 0.6521 | 0.0165 ± 0.00043
x2 = 0.697 | 0.0162 ± 0.00043
x2 = 0.7402 | 0.0155 ± 0.000406
x2 = 0.7816 | 0.0145 ± 0.000406
x2 = 0.8215 | 0.0131 ± 0.000359
x2 = 0.8599 | 0.0112 ± 0.000335
x2 = 0.8968 | 0.00927 ± 0.000311
x2 = 0.9325 | 0.00651 ± 0.000239

CCOC(C)OCC [1,1-diethoxyethane] + C1CCCCC1
[1], 323.15 K, 1308 kPa
Settings | excess molar enthalpy [kcal/mol]
x2 = 0.0648 | 0.0271 ± 0.000645
x2 = 0.1277 | 0.0506 ± 0.00115
x2 = 0.1887 | 0.0712 ± 0.00158
x2 = 0.2478 | 0.0882 ± 0.00194
x2 = 0.3052 | 0.103 ± 0.00225
x2 = 0.3609 | 0.114 ± 0.00239
x2 = 0.415 | 0.123 ± 0.00263
x2 = 0.4676 | 0.129 ± 0.00287
x2 = 0.5188 | 0.132 ± 0.00287
x2 = 0.5685 | 0.133 ± 0.00287
x2 = 0.6169 | 0.13 ± 0.00287
x2 = 0.664 | 0.126 ± 0.00263
x2 = 0.7099 | 0.12 ± 0.00263
x2 = 0.7546 | 0.111 ± 0.00239
x2 = 0.7981 | 0.0986 ± 0.00215
x2 = 0.8405 | 0.0849 ± 0.00186
x2 = 0.8819 | 0.0681 ± 0.00151
x2 = 0.9222 | 0.0481 ± 0.0011
x2 = 0.9616 | 0.0261 ± 0.000621
